Laboratory results published in patent publication US20250215012A1, “IKZF2 DEGRADERS AND USES THEREOF” (REGENTS OF THE UNIVERSITY OF MICHIGAN, priority 2022, published 2025).

Legend:
Assay type in all cases: cell-based
IKZF1 = IKZF1 (Homo sapiens (Human), UniProt Q13422+Q96SW2); assay: IKZF1 HiBit Assay (HEK293T Flp-in-HiBiT-IKZF1 stable cell line); details: HEK293T Flp-in-HiBiT-IKZF1 cells, 6 hrs; for DC50: read-out: IKZF1 HiBit degradation DC50; for Dmax: HEK-293T, read-out: IKZF1 HiBit degradation Dmax
IKZF1, sequence (Q13422 whole entry): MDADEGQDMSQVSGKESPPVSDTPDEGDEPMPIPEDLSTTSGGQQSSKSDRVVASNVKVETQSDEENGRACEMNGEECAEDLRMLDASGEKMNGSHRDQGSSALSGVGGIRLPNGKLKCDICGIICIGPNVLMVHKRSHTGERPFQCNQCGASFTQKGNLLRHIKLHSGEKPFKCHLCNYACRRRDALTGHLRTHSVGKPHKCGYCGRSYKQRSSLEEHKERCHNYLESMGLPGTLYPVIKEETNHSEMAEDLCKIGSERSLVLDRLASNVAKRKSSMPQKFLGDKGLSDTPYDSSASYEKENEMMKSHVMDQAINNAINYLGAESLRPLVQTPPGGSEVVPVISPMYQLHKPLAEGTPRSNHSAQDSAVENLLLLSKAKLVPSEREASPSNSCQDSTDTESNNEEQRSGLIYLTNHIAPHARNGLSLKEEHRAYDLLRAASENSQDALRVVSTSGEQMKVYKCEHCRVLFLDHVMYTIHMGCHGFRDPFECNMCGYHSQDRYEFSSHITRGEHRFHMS
IKZF1, sequence (Q96SW2 whole entry): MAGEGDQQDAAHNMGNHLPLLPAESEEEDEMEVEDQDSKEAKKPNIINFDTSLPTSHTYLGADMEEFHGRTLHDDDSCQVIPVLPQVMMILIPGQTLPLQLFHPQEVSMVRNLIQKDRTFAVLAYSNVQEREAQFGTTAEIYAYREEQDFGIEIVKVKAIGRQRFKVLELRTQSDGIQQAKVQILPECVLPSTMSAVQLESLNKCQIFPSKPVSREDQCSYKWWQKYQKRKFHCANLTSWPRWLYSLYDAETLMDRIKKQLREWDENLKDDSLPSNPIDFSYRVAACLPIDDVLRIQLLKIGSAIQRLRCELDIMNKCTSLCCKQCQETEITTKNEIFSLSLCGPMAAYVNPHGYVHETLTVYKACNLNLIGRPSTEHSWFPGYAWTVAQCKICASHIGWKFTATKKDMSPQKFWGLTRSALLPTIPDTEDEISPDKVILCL
IKZF1, sequence (Q16531 whole entry partner): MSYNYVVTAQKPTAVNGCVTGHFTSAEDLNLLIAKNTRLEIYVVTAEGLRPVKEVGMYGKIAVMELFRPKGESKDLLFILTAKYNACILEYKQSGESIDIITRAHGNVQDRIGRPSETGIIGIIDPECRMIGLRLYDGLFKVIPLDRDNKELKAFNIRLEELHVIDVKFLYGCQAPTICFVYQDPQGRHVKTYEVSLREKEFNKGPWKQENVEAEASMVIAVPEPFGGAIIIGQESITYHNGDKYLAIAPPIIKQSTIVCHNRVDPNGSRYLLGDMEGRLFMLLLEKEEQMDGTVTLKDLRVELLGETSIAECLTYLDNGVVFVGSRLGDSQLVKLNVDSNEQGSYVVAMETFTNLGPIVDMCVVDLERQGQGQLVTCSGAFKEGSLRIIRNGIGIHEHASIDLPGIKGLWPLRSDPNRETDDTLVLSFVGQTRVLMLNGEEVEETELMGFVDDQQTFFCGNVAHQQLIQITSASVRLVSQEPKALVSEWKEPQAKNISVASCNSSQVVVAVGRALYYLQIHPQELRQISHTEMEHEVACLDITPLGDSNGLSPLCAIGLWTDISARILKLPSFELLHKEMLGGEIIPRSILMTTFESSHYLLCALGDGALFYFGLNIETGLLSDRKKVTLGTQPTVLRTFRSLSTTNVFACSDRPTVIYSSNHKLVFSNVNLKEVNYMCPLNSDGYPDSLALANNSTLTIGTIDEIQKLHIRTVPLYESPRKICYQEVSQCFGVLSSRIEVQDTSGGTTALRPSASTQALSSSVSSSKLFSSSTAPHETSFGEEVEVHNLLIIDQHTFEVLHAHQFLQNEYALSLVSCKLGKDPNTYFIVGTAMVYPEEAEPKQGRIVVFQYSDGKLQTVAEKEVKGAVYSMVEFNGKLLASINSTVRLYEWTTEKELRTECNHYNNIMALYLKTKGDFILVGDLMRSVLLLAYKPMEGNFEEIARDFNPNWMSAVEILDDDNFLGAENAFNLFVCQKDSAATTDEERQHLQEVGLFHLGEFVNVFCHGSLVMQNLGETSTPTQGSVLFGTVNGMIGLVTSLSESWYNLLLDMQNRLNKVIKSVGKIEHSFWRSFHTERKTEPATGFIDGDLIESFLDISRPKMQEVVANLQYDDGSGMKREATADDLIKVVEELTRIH
Description: The HiBiT protein tagging system was applied to modified Cells: modified HEK293T Flp-in-HiBiT-IKZF1 stable cell line (polyclone) via a CRISPR/Cas9—mediated insertion of the HiBiT peptide tag (Promega™) to the N-terminus of the IKZF2 gene locus (Neon™ transfection system).
Test compound from 10 mM and reference compound (CC-92480 from 50 mM and I-57 from 10 mM) are diluted at 3 folds for 11 doses. 25 nL of diluted compound is transferred to assay plates (Corning3571) using ECHO550, the final DMSO concentration @0.1%. The cells are seeded in 3000/[…]/well to compound plates. The plates are incubated for 6 hrs in TC incubator. The amount of Nano-Glo® HiBiT lytic reagent needed to perform the desired experiments is calculated. The Nano-Glo® HiBiT lytic reagent is brought to room temperature. The LgBiT protein is diluted to 1:100 and the Nano-Glo® HiBiT lytic substrate is brought to 1:50 into an appropriate volume of room temperature Nano-Glo® HiBiT lytic buffer. […] of the detection reagent (or without LgBiT) is dispensed to corresponding well according to the layout. The plate is shaked for 10 mins at room temperature. After briefly centrifuging, the plate is read on Envision. At the indicated timepoints, the Nano-Glo® HiBiT lytic detection system (Promega™) was utilized for detecting bioluminescence of the HiBiT tag in treated cells: abundance of the tag is proportionate to the level of luminescence. Following normalization to DMSO, dose-response curves were plotted (GraphPad Prism) to determine the concentration points at which 50% of HiBiT-Ikaros degradation was achieved by each compound. The extent of degradation (range of luminescence) from the highest to lowest concentration points was calculated to determine the Dm.

IKZF2 [1] = biological target: T1, IKZF2 (Homo sapiens (Human), UniProt Q96SW2+Q9UKS7); assay: IKZF2 HiBit Assay (HEK293T Flp-in-HiBiT cells); details: HEK293T Flp-in-HiBiT cells, 6 hrs; for DC50: read-out: IKZF2 HiBit degradation DC50; for Dmax: HEK-293T, read-out: IKZF2 HiBit degradation Dmax
T1 sequence (Q9UKS7 whole entry): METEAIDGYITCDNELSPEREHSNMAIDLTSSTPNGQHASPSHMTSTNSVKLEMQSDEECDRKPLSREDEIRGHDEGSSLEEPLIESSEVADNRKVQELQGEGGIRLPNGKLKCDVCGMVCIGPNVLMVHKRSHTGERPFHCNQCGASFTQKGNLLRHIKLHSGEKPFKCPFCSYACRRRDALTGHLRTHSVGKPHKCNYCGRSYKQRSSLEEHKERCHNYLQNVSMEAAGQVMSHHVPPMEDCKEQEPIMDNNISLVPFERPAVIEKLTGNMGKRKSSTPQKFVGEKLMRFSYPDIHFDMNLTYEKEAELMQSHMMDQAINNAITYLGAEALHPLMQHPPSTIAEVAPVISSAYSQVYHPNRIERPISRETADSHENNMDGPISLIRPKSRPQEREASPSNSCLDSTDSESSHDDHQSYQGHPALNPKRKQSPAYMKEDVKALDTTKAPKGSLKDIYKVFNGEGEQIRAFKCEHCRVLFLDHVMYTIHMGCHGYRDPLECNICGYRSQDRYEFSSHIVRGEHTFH
T1 sequence (Q96SW2 whole entry): as the sequence (Q96SW2 whole entry) above
T1 sequence (Q16531 whole entry partner): as the sequence (Q16531 whole entry partner) above
Description: The HiBiT protein tagging system was applied to modified HEK293T Flp-in-HiBiT cells (polyclone) via a CRISPR/Cas9—mediated insertion of the HiBiT peptide tag (Promega™) to the N-terminus of the IKZF2 gene locus (Neon™ transfection system). Test and reference compounds are diluted from 1 mM at 3 folds for 11 doses. 25 nL of diluted compound is transferred to assay plates (Corning3570) using ECHO550, the final DMSO concentration @0.1%. The cells are seeded in 3000/[…]/well to compound plates. It is then incubated for 6 hrs in TC incubator. The amount of Nano-Glo® HiBiT lytic reagent needed to perform the desired experiments is calculated. The Nano-Glo® HiBiT lytic reagent is brought to room temperature. The LgBiT protein is diluted to 1:100 and the Nano-Glo® HiBiT lytic substrate is diluted to 1:50 into an appropriate volume of room temperature Nano-Glo® HiBiT lytic buffer. […] of the detection reagent (or without LgBiT) is dispensed to corresponding well according to the layout. The plate is then shaked for 10 mins at room temperature. After briefly centrifuge, the plate is read on Envision. At the indicated timepoints, the Nano-Glo® HiBiT lytic detection system (Promega™) was utilized for detecting bioluminescence of the HiBiT tag in treated cells: abundance of the tag is proportionate to the level of luminescence. Following normalization to DMSO, dose-response curves were plotted (GraphPad Prism) to determine the concentration points at which 50% of HiBiT-Helios degradation was achieved by each compound. The extent of degradation (range of luminescence) from the highest to lowest concentration points was calculated to determine the Dmax.

IKZF2 [2] = biological target: T1, IKZF2; assay: IKZF2 HiBiT Assay (Jurkat-IKZF2-HiBiT cell line); details: Jurkat-IKZF2-HiBiT cells, 24 hours; for DC50: read-out: HiBit assay degradation analysis DC50; for Dmax: read-out: HiBit assay degradation analysis Dmax
Summary of the method: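 IKZF2 degradation was assessed as HiBiT luminescence in Jurkat-IKZF2-HiBiT cells, using lytic detection after 24 h of compound treatment at 37 °C, 5% CO2.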

Row | SMILES | DC50 (IKZF1) | Dmax (IKZF1) | DC50 (IKZF2 [1]) | Dmax (IKZF2 [1]) | DC50 (IKZF2 [2]) | Dmax (IKZF2 [2])
1 | O=C1CC[C@H](N2Cc3c(ccc4c3OCC43CCN(Cc4cnn(CC5CCS(=O)(=O)CC5)c4)CC3(F)F)C2=O)C(=O)N1 (stereo partly drawn) [Compound B47, (3S)-3-(1′-((1-((1,1-dioxidotetrahydro-2H-thiopyran-4-yl)methyl)-1H-pyrazol-4-yl)methyl)-3′,3′-difluoro-6-oxo-6,8-dihydro-2H,7H-spiro[furo[2,3-e]isoindole-3,4′-piperidin]-7-yl)piperidine-2,6-dione] | > 1000 nM | < 20% | 10 to 100 nM | 60 to 80% | – | –
2 | O=C1CCC(N2Cc3c(ccc4c3OCC43CCN(Cc4cccc5cn[nH]c45)CC3O)C2=O)C(=O)N1 (stereo not shown) [Compound B24, 3-(1′-((1H-indazol-7-yl)methyl)-3′-hydroxy-6-oxo-6,8-dihydro-2H,7H-spiro[furo[2,3-e]isoindole-3,4′-piperidin]-7-yl)piperidine-2,6-dione] | > 1000 nM | < 20% | 10 to 100 nM | 60 to 80% | – | –
3 | N#Cc1ccc(-n2cc(CN3CCC4(CC3)CNc3c4ccc4c3CN([C@H]3CCC(=O)NC3=O)C4=O)cn2)cc1 [Compound B58, (S)-4-(4-((7′-(2,6-dioxopiperidin-3-yl)-6′-oxo-1′,6′,7′,8′-tetrahydro-2′H-spiro[piperidine-4,3′-pyrrolo[3,4-g]indol]-1-yl)methyl)-1H-pyrazol-1-yl)benzonitrile] | > 1000 nM | < 20% | 1 to 10 nM | 40 to 60% | – | –
4 | O=C1CC[C@H](N2Cc3c(ccc4c3NCC43CCN(Cc4ccccc4)CC3)C2=O)C(=O)N1 [Compound B56, (S)-3-(1-benzyl-6′-oxo-1′,2′,6′,8′-tetrahydro-7′H-spiro[piperidine-4,3′-pyrrolo[3,4-g]indol]-7′-yl)piperidine-2,6-dione] | > 1000 nM | < 20% | 10 to 100 nM | 40 to 60% | – | –
5 | O=C1CC[C@H](N2Cc3c(ccc4c3OC[C@@]43CCN(Cc4cccc(-c5cnn(C6COC6)c5)c4)CC3(F)F)C2=O)C(=O)N1 [Compound B54, (S)-3-((R)-3′,3′-difluoro-1′-(3-(1-(oxetan-3-yl)-1H-pyrazol-4-yl)benzyl)-6-oxo-6,8-dihydro-2H,7H-spiro[furo[2,3-e]isoindole-3,4′-piperidin]-7-yl)piperidine-2,6-dione] | > 1000 nM | 20 to 40% | 1 to 10 nM | 60 to 80% | – | –
6 | Cn1nc(CN2CCC3(CC2)COc2c3ccc3c2CN(C2CCC(=O)NC2=O)C3=O)c2ccccc21 (stereo not shown) [Compound A226, 3-(1′-((1-methyl-1H-indazol-3-yl)methyl)-6-oxo-6,8-dihydro-2H,7H-spiro[furo[2,3-e]isoindole-3,4′-piperidin]-7-yl)piperidine-2,6-dione] | – | – | – | – | > 500 nM | 40 to 60%
7 | Cn1cc(-c2ccc(CN3CCC4(CC3)COc3c4ccc4c3CN(C3CCC(=O)NC3=O)C4=O)s2)cn1 (stereo not shown) [Compound A190, 3-(1′-((5-(1-methyl-1H-pyrazol-4-yl)thiophen-2-yl)methyl)-6-oxo-6,8-dihydro-2H,7H-spiro[furo[2,3-e]isoindole-3,4′-piperidin]-7-yl)piperidine-2,6-dione] | – | – | – | – | > 500 nM | 40 to 60%
8 | Cn1cc(-c2cccc(CN3CCC4(CC3)OCc3c4ccc4c3CN(C3CCC(=O)NC3=O)C4=O)c2)cn1 (stereo not shown) [Compound A259, 3-(1′-(3-(1-methyl-1H-pyrazol-4-yl)benzyl)-6-oxo-6,8-dihydrospiro[furo[3,4-e]isoindoline-3,4′-piperidin]-7(1H)-yl)piperidine-2,6-dione] | – | – | – | – | > 500 nM | 40 to 60%
9 | O=C1CC[C@H](N2Cc3c(ccc4c3OCC43CCN(Cc4ccc5cn(C(F)F)nc5c4)CC3)C2=O)C(=O)N1 [Compound A288, (S)-3-(1′-((2-(difluoromethyl)-2H-indazol-6-yl)methyl)-6-oxo-6,8-dihydro-2H,7H-spiro[furo[2,3-e]isoindole-3,4′-piperidin]-7-yl)piperidine-2,6-dione] | – | – | – | – | < 50 nM | 60 to 80%
10 | O=C1CCC(N2Cc3c(ccc4c3OCC43CCN(Cc4c[nH]c(-c5ccccc5)n4)CC3)C2=O)C(=O)N1 (stereo not shown) [Compound A84, 3-(6-oxo-1′-((2-phenyl-1H-imidazol-4-yl)methyl)-6,8-dihydro-2H,7H-spiro[furo[2,3-e]isoindole-3,4′-piperidin]-7-yl)piperidine-2,6-dione] | – | – | – | – | > 500 nM | 40 to 60%
11 | O=C1CC[C@H](N2Cc3c(ccc4c3OCC43CCN(Cc4cccc(NC(=O)C(F)(F)F)c4)CC3)C2=O)C(=O)N1 [Compound A278, (S)-N-(3-((7-(2,6-dioxopiperidin-3-yl)-6-oxo-7,8-dihydro-2H,6H-spiro[furo[2,3-e]isoindole-3,4′-piperidin]-1′-yl)methyl)phenyl)-2,2,2-trifluoroacetamide] | – | – | – | – | < 50 nM | > 80%
12 | O=C1CCC(N2Cc3c(ccc4c3OCC43CCN(Cc4cnn(S(=O)(=O)c5cccc(Cl)c5F)c4)CC3)C2=O)C(=O)N1 [Compound A357, (S)-3-(1′-((1-((3-chloro-2-fluorophenyl)sulfonyl)-1H-pyrazol-4-yl)methyl)-6-oxo-6,8-dihydro-2H,7H-spiro[furo[2,3-e]isoindole-3,4′-piperidin]-7-yl)piperidine-2,6-dione] | – | – | – | – | < 50 nM | –
13 | O=C1CCC(N2Cc3c(ccc4c3OCC43CCN(CC4CCN(c5ccccc5)CC4)CC3)C2=O)C(=O)N1 (stereo not shown) [Compound A123, 3-(6-oxo-1′-((1-phenylpiperidin-4-yl)methyl)-6,8-dihydro-2H,7H-spiro[furo[2,3-e]isoindole-3,4′-piperidin]-7-yl)piperidine-2,6-dione] | – | – | – | – | > 500 nM | 40 to 60%
14 | Cc1[nH]c2c(CN3CCC4(CC3)COc3c4ccc4c3CN(C3CCC(=O)NC3=O)C4=O)cccc2c1C (stereo not shown) [Compound A111, 3-(1′-((2,3-dimethyl-1H-indol-7-yl)methyl)-6-oxo-6,8-dihydro-2H,7H-spiro[furo[2,3-e]isoindole-3,4′-piperidin]-7-yl)piperidine-2,6-dione] | – | – | – | – | 50 to 200 nM | 60 to 80%
15 | O=C1CCC(N2Cc3c(ccc4c3OCC43CCN(Cc4ccc(F)c5ccoc45)CC3)C2=O)C(=O)N1 (stereo not shown) [Compound A118, 3-(1′-((4-fluorobenzofuran-7-yl)methyl)-6-oxo-6,8-dihydro-2H,7H-spiro[furo[2,3-e]isoindole-3,4′-piperidin]-7-yl)piperidine-2,6-dione] | – | – | – | – | > 500 nM | 40 to 60%
16 | COCCn1ncc2cc(CN3CCC4(CC3)COc3c4ccc4c3CN(C3CCC(=O)NC3=O)C4=O)ccc21 (stereo not shown) [Compound A342, 3-(1′-((1-(2-methoxyethyl)-1H-indazol-5-yl)methyl)-6-oxo-6,8-dihydro-2H,7H-spiro[furo[2,3-e]isoindole-3,4′-piperidin]-7-yl)piperidine-2,6-dione] | – | – | – | – | > 500 nM | < 40%
17 | Cn1cc(-c2cccc(CN3CCC4(CC3)CNc3c4ccc4c3CN(C3CCC(=O)NC3=O)C4=O)c2)cn1 (stereo not shown) [Compound A309, 3-(1-(3-(1-methyl-1H-pyrazol-4-yl)benzyl)-6′-oxo-1′,2′,6′,8′-tetrahydro-7′H-spiro[piperidine-4,3′-pyrrolo[3,4-g]indol]-7′-yl)piperidine-2,6-dione] | – | – | – | – | > 500 nM | 40 to 60%
